# Assay results: patent publication US20250134855A1, “CO[…] AND METHODS OF USING SAME” (LYKOS THERAPEUTICS, INC., priority 2022, published 2025)
# Experiments:
# [1] = tested on: healthy individuals; assay: Study MPKF: SE scores and C-SSRS; design: species or system human; settings: in vivo
# Method: Those increases from baseline were observed between 0.5 to 4 hours after dosing. […] The other scores remained relatively stable in comparison to baseline across the sessions.
# [2] = biological target: BCRP (Homo sapiens, UniProt Q9UNQ0); assay: Transporter substrate assessment, BCRP; settings: not told
# BCRP, sequence (Q9UNQ0 whole entry): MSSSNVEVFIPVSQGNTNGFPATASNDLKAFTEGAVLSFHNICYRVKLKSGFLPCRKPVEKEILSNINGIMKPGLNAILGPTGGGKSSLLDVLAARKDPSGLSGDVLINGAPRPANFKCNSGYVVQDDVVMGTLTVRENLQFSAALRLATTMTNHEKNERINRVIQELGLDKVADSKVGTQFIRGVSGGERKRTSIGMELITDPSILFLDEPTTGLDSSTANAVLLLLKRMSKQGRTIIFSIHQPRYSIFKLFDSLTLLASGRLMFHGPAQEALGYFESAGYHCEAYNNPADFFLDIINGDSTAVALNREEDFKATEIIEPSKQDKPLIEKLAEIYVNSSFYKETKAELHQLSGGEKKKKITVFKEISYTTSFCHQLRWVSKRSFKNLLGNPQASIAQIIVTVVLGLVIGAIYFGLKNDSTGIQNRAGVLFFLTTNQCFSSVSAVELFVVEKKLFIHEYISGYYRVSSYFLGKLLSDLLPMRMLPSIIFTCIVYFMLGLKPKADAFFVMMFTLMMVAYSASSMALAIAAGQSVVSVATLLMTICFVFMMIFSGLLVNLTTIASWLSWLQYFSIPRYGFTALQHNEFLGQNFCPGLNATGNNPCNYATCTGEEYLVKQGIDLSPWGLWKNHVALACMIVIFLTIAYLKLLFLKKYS
# [3] = biological target: MATE2-K (Homo sapiens, UniProt Q86VL8); assay: Transporter inhibition, MATE2-K
# MATE2-K, sequence (Q86VL8 1-566 isoform Q86VL8-3): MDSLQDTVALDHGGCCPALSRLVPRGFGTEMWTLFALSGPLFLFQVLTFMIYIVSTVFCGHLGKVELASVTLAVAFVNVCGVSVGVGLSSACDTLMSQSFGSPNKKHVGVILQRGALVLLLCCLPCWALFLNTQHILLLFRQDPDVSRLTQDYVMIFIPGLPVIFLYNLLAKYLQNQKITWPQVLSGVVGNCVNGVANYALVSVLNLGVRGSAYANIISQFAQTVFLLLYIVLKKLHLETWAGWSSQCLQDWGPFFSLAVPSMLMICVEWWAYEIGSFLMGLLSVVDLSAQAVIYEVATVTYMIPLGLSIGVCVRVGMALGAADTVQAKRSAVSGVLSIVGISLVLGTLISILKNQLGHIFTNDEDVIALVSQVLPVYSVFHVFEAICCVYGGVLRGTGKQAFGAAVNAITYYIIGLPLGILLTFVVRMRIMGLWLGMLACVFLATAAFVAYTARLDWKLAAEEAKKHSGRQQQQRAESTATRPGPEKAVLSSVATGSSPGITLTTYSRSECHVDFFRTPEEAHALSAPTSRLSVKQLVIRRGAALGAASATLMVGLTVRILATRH
# [4] = tested on: human plasma proteins; settings: literature (Wan Aasim 2017); cited from earlier work
# [5] = tested on: participants with severe PTSD; assay: MAPP1 Phase 3: safety, adverse events; assay type: in vivo, human
# Method: MAPP1 was a Phase 3 randomized, placebo-controlled, 2-arm, double-blind, multi-site study conducted to investigate the efficacy and safety of MDMA-AT in participants with severe PTSD. This study is also discussed in Mitchell et. al., Nature Medicine 2021, 27, 1025-1033. This study included 3 experimental sessions of therapy combined with either MDMA·HCl or placebo. During Experimental Session 1, participants received a split dose of 120 mg (80 mg+40 mg).
# There were 2 serious TEAEs in the placebo with therapy group (1 participant with 2 events of suicide attempt [1 moderate and 1 severe] and 1 participant with 1 event of suicidal ideation [severe], Listing 14.3.2.2.3). Adverse events of special interest included a subset of AEs involving cardiac function, suicidality, and MDMA abuse. There were 3 (6.5%) participants in the MDMA-AT group and 6 (13.6%) participants in the placebo with therapy group with a TEAE of special interest. The majority of AESIs were associated with suicidality (reported by […]) and 1 participant in the placebo group reported 2 AESIs that were associated with cardiac function (palpitations and irregular heart rate). […] A total of 4 participants discontinued study treatment due to a TEAE (MDMA: 1 participant [severe TEAE of depression]; placebo: 3 participants [1 participant with 2 serious adverse events (SAEs) of suicide attempt, 1 participant with a SAE of suicidal ideation, and 1 participant with 1 severe TEAE of insomnia]. The majority of participants in the MDMA-AT group (97.8%) and the placebo with therapy group (90.9%) had at least 1 temporally related TEAE (TEAEs that occurred during an experiment session or up to 2 days following); none of these events were SAEs. A listing of all TEAEs from MDMA-AT group with ≥5% incidence and twice prevalence of placebo group is provided below in Table 37. Table 37.
# [6] = tested on: human Caco-2 cells; assay: Caco-2 permeability
smiles,measurement,setting,value
"CNC(C)Cc1ccc2c(c1)OCO2 (centres unmarked) [MDMA, 3,4-methylenedioxymethamphetamine]",C-SSRS scores,[1],No abnormal C-SSRS scores
same,substrate of BCRP,[2],not a substrate
same,inhibition of MATE2-K,[3],not an inhibitor
same,bound to plasma proteins in humans,[4],51%
same,AESIs of MDMA abuse,[5]; MAPP1,no AESIs of MDMA abuse
same,"TEAE Blood pressure increased, %",[5]; MAPP1,(10.9) %
same,"TEAE Bruxism, %",[5]; MAPP1,(13.0) %
same,"TEAE Chills, %",[5]; MAPP1,(6.5) %
same,"TEAE Decreased appetite, %",[5]; MAPP1,(52.2) %
same,"TEAE Dizziness postural, %",[5]; MAPP1,(13.0) %
same,"TEAE Dry mouth, %",[5]; MAPP1,(10.9) %
same,"TEAE Feeling cold, %",[5]; MAPP1,(19.6) %
same,"TEAE Feeling jittery, %",[5]; MAPP1,(10.9) %
same,"TEAE Hyperhidrosis, %",[5]; MAPP1,(21.7) %
same,"TEAE Intrusive thoughts, %",[5]; MAPP1,(8.7) %
same,"TEAE Micturition urgency, %",[5]; MAPP1,(6.5) %
same,"TEAE Muscle tightness, %",[5]; MAPP1,(60.9) %
same,"TEAE Muscle twitching, %",[5]; MAPP1,(6.5) %
same,"TEAE Musculoskeletal pain, %",[5]; MAPP1,(8.7) %
same,"TEAE Mydriasis, %",[5]; MAPP1,(15.2) %
same,"TEAE Nausea, %",[5]; MAPP1,(30.4) %
same,"TEAE Nervousness, %",[5]; MAPP1,(6.5) %
same,"TEAE Non-cardiac chest pain, %",[5]; MAPP1,(8.7) %
same,"TEAE Nystagmus, %",[5]; MAPP1,(13.0) %
same,"TEAE Pain, %",[5]; MAPP1,(8.7) %
same,"TEAE Pollakiuria, %",[5]; MAPP1,(8.7) %
same,"TEAE Pyrexia, %",[5]; MAPP1,(6.5) %
same,"TEAE Restlessness, %",[5]; MAPP1,(15.2) %
same,"TEAE Somnolence, %",[5]; MAPP1,(6.5) %
same,"TEAE Stress, %",[5]; MAPP1,(8.7) %
same,"TEAE Substance use, %",[5]; MAPP1,(6.5) %
same,"TEAE Vision blurred, %",[5]; MAPP1,(8.7) %
same,"TEAE Vomiting, %",[5]; MAPP1,(8.7) %
same,participants with a TEAE of special interest,[5]; MAPP1,6.5%
same,"At least one Serious TEAE Leading to Death, %","[5]; MAPP1, Safety Set",(0.0) %
same,"At least one Serious TEAE, %","[5]; MAPP1, Safety Set",(0.0) %
same,"At least one TEAE of Special Interest, %","[5]; MAPP1, Safety Set",(6.5) %
same,"Discontinued study treatment due to any TEAE(s), %","[5]; MAPP1, Safety Set",(2.2) %
same,"Participants with at least 1 TEAE during Experimental Sessions and 2 Days Following, %","[5]; MAPP1, Safety Set",(97.8) %
same,"Subjects with at least 1 Severe TEAE, %","[5]; MAPP1, Safety Set",(8.7) %
same,"Subjects with at least 1 TEAE, %","[5]; MAPP1, Safety Set",(100.0) %
same,heart rate and blood pressure during experimental sessions,"[5]; MAPP1, dose-dependent, no clinical intervention required",transient increases
same,participants with at least 1 temporally related TEAE,"[5]; MAPP1, during an experiment session or up to 2 days following",97.8%
same,permeability in human Caco-2 cells,[6],highly permeable
